# Experimental data as given in patent publication US20220233556A1, “COMPOSITIONS AND METHODS FOR TREATING OPHTHALMIC CONDITIONS” (Medicon Pharmaceuticals, Inc., priority 2017, published 2022).
# Read-outs that look alike come from different tables or passages of the source.
# Tests used:
# NF-κB [1] = test: NF-κB activation in the ILG of rabbits with DED; type: in vivo; details: 1 week of treatment, vs vehicle
# Method: (§1) FIGS. 6A and 6B illustrate that PS suppresses the activation of NF-κB and MAPKs. In FIG. 6A, NF-κB activation was determined by EMSA in cultured human conjunctival cells stimulated with TNFα (top) and in the ILG of rabbits with Con A-induced DED and treated for one week with either vehicle or PS (bottom). In FIG. 6B, immunoblots detecting the activation of MAPKs by phosphorylation in cultured human conjunctival cells treated with PS at the indicated concentrations for 3.5 h. Loading control: β-actin.
# Human conjunctival cells were treated with various concentrations of PS. Five hours later, TNF-α was added to the culture medium to a final concentration of 10 ng/ml and the status of NF-κB activation was determined by EMSA 1 h later. […] Similarly, after 1 week of treatment, PS suppressed NF-κB activation in the ILG of rabbits with DED compared to those treated with vehicle.
# [2] = PS biodistribution after topical alternative sodium alginate-based in-situ gel; type: in vivo, New Zealand white rabbits; details: New Zealand white, rabbit, 3 % PS in formulation
# Method: Composition: 3% PS, 1.5% sodium alginate, 15% Tween 80, 10% (2-hydroxypropyl)-β-cyclodextrin, 10% polyethylene glycol 400 (PEG400), 5% polyoxyl stearate.
# Preparation Method: A sodium alginate solution was prepared by adding an appropriate amount of sodium alginate to deionized water and heating the mixture to 90° C. with fast stirring (500 rpm). Once sodium alginate was completely dissolved, the solution was filtered through a 0.22 μm filter. Then, PS and additional excipients were added to achieve the above concentrations and stirred at 50° C. at 500 rpm until complete dissolution.
# Results: PS in this formulation was administered topically to the eyes of New Zealand white rabbits and its biodistribution was determined as above.
# uveitis = test: LPS-induced uveitis in rats; type: in vivo; details: PS 3% once intravitreally, 48 h
# Method: Uveitis was produced in rats by injecting LPS 75 ng into the footpad of rats. The rats were injected once intravitreally with 2 μPS 3% or vehicle. A control group included naïve rats (not LPS, no treatment). Forty-eight hours later we examined their eyes, sampled the aqueous humor and after euthanizing them we excised, fixed and stained with H&E ocular tissues following standard protocols. […] These findings document a very strong and unexpected therapeutic effect of PS against uveitis.
# [3] = Ocular PK study of PS nanoparticles (mPEG-PLA), topical eye drops; type: in vivo, New Zealand white rabbits; design: AUC(0-t) / AUC0-16h, cornea / AUC0-16h, conjunctiva: concentration or dose not given beside the values; details: for AUC(0-t) / Cmax: New Zealand white, rabbit, topical or ocular
# Method: Composition: ˜3.0-3.5% PS, 96.5˜97% methoxy poly(ethylene glycol)-poly(lactide) (mPEG-PLA).
# Preparation Method: Oil phase: 150 mg of PS and 1 g of PEG-PLA (Akina, Inc) were dissolved in 20 mL dichloromethane (DCM). Water phase: 365 mg of sodium cholate were dissolved in 60 ml of purified water. 5 mL of the oil phase was gently added into 15 mL of the water phase in a 50 mL Eppendorf conical tube. To create an emulsion, we used robe sonication for 2 min at 75% output (Branson 150, Fisher Scientific™, USA); the watt output was 12-13. The emulsion was transferred into a 100 mL beaker and stirred overnight at 600 rpm in a chemical hood until the DCM was fully evaporated. This was followed by centrifugation at 14,000 rpm for 1 h (Dupont, RC-5C). Then, the supernatant was transferred to another tube into which 3 mL of PBS were added to resuspend the nanoparticles. The nanoparticle solution was centrifuged for 6-7 seconds to remove aggregates. This supernatant was the final preparation.
# Ocular PK study: PS formulated in nanoparticles as above was administered topically as eye drops to New Zealand white rabbits. The biodistribution of PS in ocular tissues at the indicated time points post administration was determined by HPLC.
# NF-κB [4] = test: NF-κB activation by EMSA in TNF-α-stimulated human conjunctival cells; type: cell-based; details: PS 5 h, then TNF-α 10 ng/ml, EMSA 1 h later
# Method: as §1
# The Mechanism of Action of PS in Dry Eye. Tissue culture, animal and human studies have established inflammation as the core mechanism of DED. To determine the mechanism of action of PS in DED the response to PS of several factors known to play an important role in the inflammation associated with DED was explored. They include NF-κB; the cytokines TGF-β, IL-1β, IL-6 and IL-8; the collagenases MMP-1 and MMP-9; and PGE2. In these studies human conjunctival epithelial cells were used, the Wong-Kilbourne derivative of Chang conjunctival cells (clone 1 to 5c-4l American Type Culture Collection (Manassas, Va.) certified cell line, 20.2).
# Human conjunctival cells were treated with various concentrations of PS. Five hours later, TNF-α was added to the culture medium to a final concentration of 10 ng/ml and the status of NF-κB activation was determined by EMSA 1 h later. […]
# PGE2 = PGE2 levels in tears and cornea of rabbits (ELISA); type: in vivo
# Method: FIGS. 9A and 9B illustrate that PS preserves the levels of PGE2 in tears and the cornea. In FIG. 9A, PGE2 levels were determined by ELISA in tears collected on day 7 from naïve rabbits and rabbits with Con A-induced DED treated for 1 week with vehicle or PS. In FIG. 9B, PGE2 levels were further examined. Upper panel: PGE2 levels in the tears of naïve rabbits and rabbits with Con A-induced DED treated for 1 h with PS or ketorolac as in Methods. Lower panel: PGE2 levels in the corneal tissue of naïve rabbits and rabbits with Con A-induced DED treated for 1 week with vehicle or PS or ketorolac or diclofenac. n=8 eyes/group. Values=mean±SEM.
# It was determined that the levels of PGE2 in rabbit tears in three groups of rabbits, naïve and those with Con A-induced DED that were treated for 1 week either with PS or vehicle.
# In an acute experiment, administered once topically to the eyes of four groups of rabbits with Con A-induced DED was one of the following: vehicle, PS, ketorolac or diclofenac; the latter two are NSAIDs used for the treatment of ocular inflammation and pain. It was determined that the levels of PGE2 in the cornea of these rabbits obtained 1 h later as well as in the corneas of naïve rabbits.
# [5] = conjunctiva, read-out: PS in Conjunctiva
smiles,measurement,setting,value
"CCOP(=O)(OCC)OCCCCOC(=O)CC1=C(C)/C(=C/c2ccc([S+](C)[O-])cc2)c2ccc(F)cc21 (centres unmarked) [PS, phosphosulindac]",NF-κB activation in the ILG,NF-κB [1],suppressed
same,concentration at 1 h,"[2]; aqueous humor, read-out: PS in Aqueous humor",400 nM
same,concentration at 1 h,[2]; [5],4900 nM
same,concentration at 3 h,[2]; [5],2100 nM
same,concentration at 5 h,[2]; [5],2300 nM
same,concentration at 8 h,"[2]; conjunctiva, 8 h",1300 nM
same,concentration at 1 h,"[2]; cornea, read-out: PS in Cornea",17800 nM
same,concentration at 3 h,"[2]; cornea, read-out: PS in Cornea",5000 nM
same,concentration at 5 h,"[2]; cornea, read-out: PS in Cornea",1000 nM
same,clinical score,"uveitis; mean±SEM, vehicle 3.3±0.2",1.8±0.2
same,inflammatory cells in the tissues of the anterior chamber,uveitis; vehicle 203±39,12±2.3
same,number of cells,"uveitis; aqueous humor, vehicle 543±132",164±31
same,AUC(0-t),"[3]; aqueous humor, read-out: AUC0-16 h, Aqueous humor",3.4 µM·h
same,Cmax,"[3]; aqueous humor, read-out: Cmax, Aqueous humor",2600 nM
same,AUC(0-t),"[3]; ciliary body, read-out: AUC0-16 h, Ciliary body",3.6 µM·h
same,Cmax,"[3]; ciliary body, read-out: Cmax, Ciliary body",2600 nM
same,AUC(0-t),"[3]; conjunctiva, read-out: AUC0-16 h, Conjunctiva",61.7 µM·h
same,Cmax,"[3]; conjunctiva, read-out: Cmax, Conjunctiva",26700 nM
same,AUC(0-t),"[3]; cornea, read-out: AUC0-16 h, Cornea",156 µM·h
same,Cmax,"[3]; cornea, read-out: Cmax, Cornea",101000 nM
same,AUC(0-t),"[3]; iris, read-out: AUC0-16 h, Iris",13.6 µM·h
same,Cmax,"[3]; iris, read-out: Cmax, Iris",5200 nM
same,AUC(0-t),"[3]; sclera, read-out: AUC0-16 h, Sclera",3.3 µM·h
same,Cmax,"[3]; sclera, read-out: Cmax, Sclera",2100 nM
same,"Cmax, conjunctiva",[3]; PS and its metabolites,26700 nM
same,"Cmax, cornea",[3]; PS and its metabolites,101.3 μm
same,activation of NF-κB,NF-κB [4],significantly suppressed
same,PGE2 levels in tears,PGE2; rabbits with Con A-induced DED treated 1 week,slightly lower than (but not significantly different from) those of naïve rabbits
same,PGE2 levels in the cornea,"PGE2; rabbits with Con A-induced DED, administered once topically, 1 h later",no different than those of vehicle-treated and naïve rabbits
